The values that follow come from patent US6238689A, “Intestinal absorption of nicotine to treat nicotine responsive conditions” (Mayo Foundation for Medical Education and Research, priority 1998, dated 2001).

Where two headings read alike, the source gives them in different places.

The conditions of data set [1]: statement without test; cited from earlier work.
The nature of data set [2]: Side effects of nicotine delivered to the intestine versus gum and patch. It counts as in vivo, human. To be noted: absorbed through the intestinal mucosa; inventors' belief.
A short description of data set [3]: Pharmacokinetics of nicotine after IV, oral and enema administration (Example 4). How it is done:
Intravenous nicotine was prepared using a nicotine base, supplied as the tartrate salt (Fisher Scientific/Eastman Kodak Company, Rochester, N.Y.). Solutions for injection were made up by combining 1.5 mg nicotine base (4.44 mg tartrate salt) in 100 ml of 0.9% sterile normal saline to form a 15 mcg/mL solution. The intravenous solution was filtered through a 0.22 micron filter into a sterile container and under sterile conditions. The solution was then cultured for organisms, assayed for endotoxin, and chemically analyzed prior to infusion to assure stable nicotine concentration. These samples were then be stored in sealed vials until the time of administration.
The oral preparation was formed by dissolving 45 micrograms nicotine base/kg body weight (133.3 micrograms tartrate salt/kg body weight) in 30 ml purified water.
The sorbitol was added to make the vehicle isoosmolar and the carboxymethylcellulose was used as a suspending agent.
Thirty paid human volunteers were admitted to the pharmacokinetic study after giving informed consent to a protocol approved by the institutional review board at the Mayo Clinic, Rochester, Minn. The subjects ranged in age from 21-56 and their body weights ranged from 45 to 153 Kg. All subjects were non-smokers and were healthy based on their histories, and physical examination. Subjects agreed to practice birth control during the study period. Complete blood count, chemistry group, urinalysis and pregnancy test (women only) were obtained. Subjects were excluded if they had cardiovascular disease, peripheral vascular disease, hypertension, were nursing mothers, had laboratory evidence of pregnancy, or had hepatic or renal dysfunction.
Each subject underwent 2 investigations (IV and non-IV) of 8 hours duration at least 1 week apart. During the IV visit, subjects were given a 15-30 minute infusion of the IV nicotine solution (15 mcg/Kg dose). […] On each study day, venous blood samples were drawn from an IV catheter into standard chemistry vacutainer tubes. Samples were obtained before nicotine administration and at the following time points (time=0 was defined as the point at which the nicotine infusion was started or the non-IV dose was administered): 5, 10, 15, 30, 60, 90 minutes, and 2, 3, 4, 5, 6, and 8 hours. Whole blood samples were centrifuged and plasma samples were then stored at -20 degrees Celsius until analysis. Plasma concentrations of nicotine were determined by gas chromatography/mass spectrometry as described by Baskin et al. (Clin. Chem., 31:76-80 (1991)).
For this study, the maximum plasma nicotine concentration (Cmax) and the time to reach Cmax (Tmax) were defined as the highest measured plasma concentrations and the time of the sample, respectively. The following pharmacokinetics parameters were calculated using standard equations (Gibaldi (ed.) Pharmcokinetics 2nd ed, Marcel Dekker Inc., New York 409-17 (1982)): area under the plasma nicotine concentration versus time curve (AUC), bioavailability (F), blood elimination half-life (T1/2), volume of distribution (Vdss), and blood nicotine clearance (Clb).
The computed bioavailability for each subject was used in an analysis of covariance to compare the five groups. Within subject (IV versus non-IV) variation was evaluated for each group of 6 subjects using a paired-T test. In addition, data was reviewed for gender variation.

The conditions of data set [4]: cited from earlier work.
Data set [5] can be described thus: Side effects by questionnaire versus plasma nicotine concentration (Example 4). It counts as in vivo, human (healthy non-smoking volunteers). How it is done: However, the threshold above which symptoms appeared varied from individual to individual with the nicotine concentration at which side effects first appeared ranging from 2.4 ng/mL to 9.9 ng/mL (although some subjects had nicotine concentrations of >11 ng/mL without symptoms).

For data set [6] the following is noted: human, in vivo; cited from earlier work.
A short description of data set [7]: Pharmacokinetics of nicotine tartrate after IV and Eudragit coated delayed release oral (DRO) capsules (Example 5). How it is done:
Delayed-release Eudragit™ coated oral nicotine capsules were prepared by Tillotts Pharma AG, Ziefen, Switzerland and consisted of either 3 mg or 6 mg of nicotine (8.887 mg or 17.774 mg nicotine tartrate base salt, respectively). The nicotine salt was suspended in an excipient (a saturated polyglycolized glyceride; Gelucire™ 44/14, (supplied by Gattefosse France) (190 mg or 380 mg respectively) and filled into hard gelatine capsules (size 1). The capsules were then coated with Eudragit™ L30D. Eudragit™ L30D is a polymer which dissolves at about pH 6.8 in the ileum. The size of the capsule and the thickness of the Eudragit coating are similar to those used to deliver Asacol™ (Eudragit coated mesalamine) to the terminal ileum (Schroeder et al., NEJM, 317:1625-9 (1987)).
Delayed-release Eudragit coated oral nicotine/carbomer capsules were prepared by Tillotts Pharma. Nicotine/carbomer powder (1:50--nicotine carbomer) was coated with Eudragit™ L, S or LS. The coated powder was then formed into spherules, coated with Eudragit S and filled into hard gelatine capsules (size 1). The capsules were then coated with Eudragit™ L30D. In one example, the capsules contained 150 mg nicotine-carbomer complex, equivalent to 3 mg nicotine base.
The aim of this study was to determine nicotine tartrate pharmacokinetics after administration by: IV, and 3 mg and 6 mg Eudragit S coated delay release oral (DRO) capsules.
Each subject had 2 studies [DRO and 15 μg/kg (mean 1 mg) IV] separated by >1 week with the order (IV vs DRO first) randomly assigned. After nicotine administration, blood was obtained for 12 hours and serum nicotine was determined by gas chromatography/mass spectrometry. Plasma cotinine concentrations were determined HPLC in 2 subjects (both 6 mg) over 72 hours. Pharmacokinetic parameters determined were: maximum concentration (Cmax); time to Cmax (Tmax); area under the curve (AUC); bioavailability (F); volume of distribution (Vdss); clearance (CL); and half-life (T1/2).
Delayed-release Eudragit coated oral nicotine capsules were prepared in accordance with Example 3, Part A.
Delayed-release Eudragit coated oral nicotine/Carbopol capsules were prepared in accordance with Example 3, Part B.

Data set [8] is described as follows: Side effects after nicotine/Carbopol enema in healthy volunteers and patients with active UC (Example 6). Type of data set: in vivo, human. How it is done: Eight normal healthy volunteers and 8 patients with active UC were enrolled in this open label, single dose study.
The nicotine content of sample enemas was first confirmed by diluting a small volume of the contents in dilute hydrochloric acid to produce an approximate concentration of 30 ng/ml, which could then be accurately measured by our assay.
Side-effect experienced by the subjects were recorded as absent, mild, moderate or severe. Subjects were asked to report the time, nature and severity of any symptoms, at the commencement and each hour through the study, and were questioned particularly about nausea, vomiting, light-headedness, tremor, palpitations and headache. Blood pressure and pulse rate were also recorded each hour and when any symptoms occurred.

For data set [9] the following is noted: oral, 45 micrograms nicotine base/kg, previous study (Benowitz et al.); cited from earlier work.
For data set [10], the system named is cutaneous inflammatory response. To be noted: transdermal delivery system; cited from earlier work.

Regarding `CN1C(=O)CC[C@H]1c1cccnc1` [cotinine], in data set [1], the “activity relative to nicotine” value is “less active metabolite than nicotine”.
In the case of `CN1CCCC1c1cccnc1` (stereo not shown) [nicotine], the “bioavailability, cause” value in data set [2] is on record as “low bioavailability of nicotine absorbed through the intestinal mucosa appears to be largely due to its conversion to the major metabolite cotinine on first pass metabolism in the liver”. Also, in data set [3] (human, plasma, iv, […]), the Tmax (commonly the time at which the peak concentration occurs) was 18 ± 6 min. In addition, in data set [3] (human, plasma, iv, […], IV 15 mcg/kg over 15-30 min, n = 32, mean ± SD), the area under the curve (AUC) (usually concentration integrated over time) amounted to 12 ± 5 ng·h/mL. Also, in [3] (human, plasma, po, […]), the Tmax came to 66 ± 6 min and the bioavailability (as a rule, the share of a dose that reaches the circulation, judged against a reference dose that is usually intravenous) was determined as 19%. Moreover, in data set [3] (human, plasma, po, […], 45 mcg nicotine base/kg, n=6, analyzed on natural log scale), the area under the curve (AUC) came to 9 ± 5 ng·h/mL. In addition, the “subjects with no detectable plasma levels” value in [3] (oral, 45 mcg/kg) was 2 subjects. Besides, the “time at which nicotine was first detected in plasma” value in [3] (oral, 45 mcg/kg, when detectable) was 30 min. Besides, in data set [3] (pilot study, two additional subjects, enema), the “colonic absorption, dependence on patient position” value is recorded as “higher plasma levels detected when subjects were allowed into a sitting position immediately after administration”. The “effect on cardiovascular system” value in data set [4] (in vivo) is “increased heart rate and blood pressure resulting in greater myocardial work and oxygen requirement and coronary vasocontriction”. Moreover, the “effect on platelets and blood lipids” value in data set [4] (purported) was “activate platelets and to adversely affect blood lipids”. Also, the “nicotine concentration without symptoms (some subjects)” value in [5] (plasma) was greater than 11 ng/mL. Moreover, the “side effects, correlation with plasma nicotine concentrations” value in data set [5] (questionnaire every 30 minutes) is given as “closely correlated with plasma nicotine concentrations”. Besides, in [5] (variable frequency), the side effects observed result is “nausea lightheadedness, and diaphoresis”. Besides, in data set [6], the “response of Alzheimer's and Parkinson's disease patients” value is “beneficial response”. Moreover, in [7] (6 mg DRO versus IV), the first pass metabolism result is “significant first pass metabolism”. Besides, the systemic bioavailability result in [7] (DRO route to the ileocolon) is given as “reduced systemic bioavailability of nicotine”. For the same compound, in data set [7] (IV 15 μg/kg (mean 1 mg), n=20), the F stood at 100 ± 0%. Further, in [7] (human, in vivo, iv, […]), the time to peak (Tmax) was 24 ± 6 min, the Vd amounted to 2 ± 1 L/kg, the clearance is 16.7 mL/min/kg and the half-life (usually the time in which the quantity being followed falls by half) was 60 ± 60 min. In [8] (administration to the colon), the “rise in serum nicotine” value is reported as “only modest rises in serum nicotine occur”. In addition, the tolerability result in [8] (human, in vivo) is “side effects were few and the preparation well tolerated”. For the same compound, the “nicotine's stability” value in [8] (phosphate buffer added, final pH of 5.5) is “increasing nicotine's stability”. In addition, the tolerability result in [9] is “well-tolerated”. The “cutaneous inflammatory response to sodium lauryl sulphate and UVB radiation, and reactive hyperaemia” value in [10] is “suppress the cutaneous inflammatory response to sodium lauryl sulphate (irritant) and UVB radiation, as well as reactive hyperaemia following arterial occlusion”.
